We go through one compound from US9951039B2, “Pyrimidines for treatment of bacterial infections” (The Hong Kong Polytechnic University, priority 2016, dated 2018).

The test system of one series is E. coli strain ATCC25922. Kind of series: MIC, broth microdilution antimicrobial susceptibility test (CLSI). It counts as cell-based. The note with it: Escherichia coli, ATCC25922; E. coli ATCC 25922; growth inhibited by ≥90%, 18 h; read-out: MIC^c: Minimum inhibitory concentration against E. coli. An excerpt: (§1) This example illustrates the evaluation of 2,4,6-trisubstituted pyrimidines 14 for their antimicrobial activities against the Gram positive S. aureus strain ATCC29213 and the Gram negative E. coli strain ATCC25922 by measuring their MIC, which is the lowest concentration of an antimicrobial agent that prevents visible growth of a microorganism in a broth dilution susceptibility test according to the standard method approved by the Clinical and Laboratory Standards Institute (CLSI) guidelines.^21
(§2) Procedure of Antimicrobial susceptibility test: The MIC value of compounds was measured in the antimicrobial susceptibility test using the broth microdilution procedure in accordance with the CLSI guidelines.^21 Cation-adjusted Mueller Hinton broth (CA-MHB) was used for all the S. aureus strains in the assay. Cells in exponential phase of growth were diluted to approximately 5×10^5 cfu/mL. Stock solutions of each compound were freshly dissolved in dimethyl sulfoxide (DMSO). Then, serial dilutions of each compound in CA-MHB medium were added into 96-well microplate. The final percentage of DMSO in the assay was 1%. Control experiments were performed with 1% DMSO instead of the compound solution. After being incubated at 37° C. for 18 h, OD600 value of cells was measured on a microplate reader and the percentage of bacterial cell inhibition with respect to controls was calculated. The MIC value was defined as the lowest compound concentration at which the growth of bacteria was inhibited by ≥90%. Three independent assays were performed for each compound.

In series [1] the test system is S. aureus strain ATCC29213. The description is as above. The note with it: for MIC: Staphylococcus aureus. It counts as cell-based.
From the text: as §1, §2

Series [2] concerns S. aureus ATCC BAA-1717 (methicillin resistant). Nature of the series: MIC against clinically isolated strain 2. It counts as cell-based. The note with it: Staphylococcus aureus, ATCCBAA1717. The procedure: as §2
(§3) Results: Three compounds, namely 14av_amine16, 14dv_amine16 and 14dv_amine06, were selected to be tested against nine in-house clinically isolated bacterial strains including S. aureus ATCC29247, which is an ampicillin resistant strain, S. aureus ATCC BAA-41, ATCC BAA-1717, ATCC BAA-1720, ATCC 43300 which are methicillin resistant strains and four USA300 strains, (#417, #757, #1799 and #2690), which are the predominant strain type of community-associated MRSA strains in the United States.

Series [3] deals with S. aureus ATCC BAA-41 (methicillin resistant). Nature of the series: MIC against clinically isolated strain 4. It counts as cell-based. The note with it: Staphylococcus aureus, ATCCBAA41. On the procedure: as §2, §3
The test system of series [4] is USA300 #1799 (community-associated MRSA). Kind of series: MIC against clinically isolated strain 8. It counts as cell-based, S. aureus. The note with it: Staphylococcus aureus. The procedure:
as §2, §3

For the next series, the system named is G. mellonella larvae. Nature of the series: Toxicity in G. mellonella larvae. The note with it: 0, 50 and 100 mg/Kg in 50% PEG in saline, no MRSA inoculation, 48-hours period. The series is classed as in vivo, Galleria mellonella. On the procedure: (§4) Procedure: Compound 14av_amine16 was tested in a Galleria mellonella model, which are an easy and inexpensive in vivo model with no ethical constraints for investigating antibacterial activity of a compound.^22 The G. mellonella model of S. aureus infection was used as previously described.^24 Briefly, 1 mL aliquots of overnight cultures of S. aureus 43300 were pelleted by centrifugation and washed with sterile PBS before being resuspended in 100 μL of PBS. G. mellonella larvae (N=10) that weighed 200-300 mg were then inoculated with 10 μL of S. aureus (2.5×10^6 CFU) into the last left proleg. Larvae were then treated with compounds at 1 h before bacterial inoculation. Treatments were performed in the same manner as infection, except that compounds were injected into the next left proleg moving toward the head of the larvae. […] Data was analyzed for statistical significance using a log rank and χ square test with 1 degree of freedom. Various concentrations of compound 14av_amine16 dissolved in 50% PEG in saline (0 mg/Kg, 50 mg/Kg and 100 mg/Kg) were injected into the hemocoel of last-instar G. mellonella larvae and survival was scored over time.
To examine the feasibility of using G. mellonella for compound 14av_amine16 toxicity study, the ability of compound 14av_amine16 to kill G. mellonella larvae was examined.

Another series deals with MRSA ATCC 43300. Nature of the series: Antimicrobial efficacy in G. mellonella model of infection. It counts as in vivo, Galleria mellonella. The procedure:
as §4
The efficacy of compound 14av_amine16 against G. mellonella larvae infected with MRSA ATCC 43300 was investigated. Inoculation of lethal dose of 2.5×10^6 CFU/larva of MRSA ATCC 43300 led to a significant death rate. […]

The next series deals with B. subtilis 168. Nature of the series: Bacterial morphology of B. subtilis 168 (phase-contrast microscopy). The series is classed as cell-based. To be noted: sub-lethal concentration, 4 h. The procedure:
Procedure: The B. subtilis 168 cells were grown in LB medium. The cultures at an A600 of 0.01 from an overnight culture were inoculated in the same medium containing different concentrations of the test compounds and grown at 37° C. for 4 h. The cells for morphology studies were harvested and resuspended in 100 μL of PBS buffer containing 0.25% agarose. 10 μL of the suspension mixture were then placed on a microscopic slide pretreated with 0.1% (w/v) poly-L-lysine and the morphology of the bacterial cells was observed under a phase-contrast optical microscope at 40× magnification. The images were captured using an Olympus Bio Imaging Navigator FSX 100 microscope.

≈ marks a conversion by molar mass, not a printed value. Where two headings read alike, the source gives them in different places.

For the compound `CCC(CC)c1cc(CCN2CCCN(Cc3ccc(C(F)(F)F)cc3)CC2)nc(-c2ccncc2)n1` [Compound 14av_amine16, 1-(2-(6-(pentan-3-yl)-2-(pyridin-4-yl)pyrimidin-4-yl)ethyl)-4-(4-(trifluoromethyl)benzyl)-1,4-diazepane], the MIC in the series with E. coli strain ATCC25922 was greater than 125 µM; in series [1] (ATCC29213, S. aureus 29213, growth inhibited by ≥90%, 18 h, read-out: MIC^b: Minimum inhibitory concentration against S. aureus), 8 µM (≈ 4.09 µg/mL); in series [1] (S. aureus ATCC29213, read-out: MIC against S. aureus), 5 to 8 µM (≈ 2.56 to 4.09 µg/mL); in series [2], 8 µM (≈ 4.09 µg/mL); in series [3], 12 µM (≈ 6.14 µg/mL); in series [4], 12 µM (≈ 6.14 µg/mL). Moreover, in series [1] (E. coli ATCC 25922 MIC over S. aureus 29213 MIC), the “MIC^c/MIC^b: Selectivity index” value is on record as greater than 15. The “ability to kill G. mellonella larvae (toxicity)” value in the series with G. mellonella larvae was “did not kill G. mellonella larvae”. Further, the “survival time of infected larvae” value in the series with MRSA ATCC 43300 (50 mg/Kg, lethal dose 2.5×10^6 CFU/larva MRSA ATCC 43300) came out at 36 h. Further, the “survival rate of infected larvae over the infection period” value in the series on MRSA ATCC 43300 (100 mg/Kg, lethal dose MRSA ATCC 43300, 48 h) was found to be 20%. The same compound came in with an average cell length with B. subtilis 168 greater than 20 μm.
